Source: patent US20260284011A1, “COMPOUNDS FOR RESTORING SUSCEPTIBILITY TO BETA-LACTAM ANTIBIOTICS” (UNIVERSITY OF NOTRE DAME DU LAC, priority 2023, published 2026)
Where two headings read alike, the source gives them in different places.

Key:
[1] = test system: active-site serine penicillin-binding proteins; assay: Inhibition of penicillin-binding proteins
[2] = test system: additional MRSA strains; assay: Checkerboard assay; assay type: cell-based, Staphylococcus aureus
Experimental: (§1) Synergy with β-Lactams and Time-Kill Assays. […] In this assay, the antibiotics are compared individually and in combination. The fractional inhibitory concentration (FIC) index is calculated. Synergy is defined as an FIC value ≤0.5, indifference as FIC >0.5 to ≤4, and antagonism as FIC >4.
(§2) Checkerboard assay. […] The final inoculum in each well was 5×10^5 CFU·mL^−1, and the result was read after 24-h incubation at 37° C. The fractional inhibitory concentration (FIC) index was calculated for each combination. An FIC index of ≤0.5 is considered synergistic. The experiment was done in triplicates.

[3] = test system: strain NRS21; assay: Checkerboard assay; assay type: cell-based, Staphylococcus aureus; conditions: 24-h incubation
Experimental: as §1, §2

[4] = PK study, plasma and thighs; assay type: in vivo, mice; conditions: mouse; for Cmax at 4 h: sc, single subcutaneous dose 25 mg·kg^−1; for Cmax at 4 h / concentration at 8 h: mice
Experimental: Pharmacokinetics of Compound 4 and In Vivo Efficacy. We next evaluated the pharmacokinetics (PK) of compound 4 and its distribution to the thighs (sites of infection in the disease model) after a single subcutaneous dose at 25 mg·kg^−1 to mice.
Animals. Outbred 8-week-old female ICR mice for PK and neutropenic thigh infection studies were purchased from Envigo, Indianapolis, IN. The average weight of the mice for the PK study was 30 g (range 26.1 to 33.1 g); mice in the neutropenic thigh infection weights ranged from 24.2 to 37.7 g and were on average 29 g at the initiation of the study. Mice were housed in polycarbonate shoebox cages (for the PK study) or in disposable cages (for the infection studies) with ¼-inch corncob (The Andersons Inc., Maumee, OH) and Alpha-Dri (Shepherd Specialty Papers, Inc., Richland, MI) bedding with a 12-h light/dark cycle at 72° F. The animals were given food (Teklad 2918 irradiated extruded rodent diet) and water ad libitum. The food and water were autoclaved for the infection studies. All procedures were performed in accordance with and approved by the University of Notre Dame Institutional Animal Care and Use Committee.
PK study. Mice (n=15) were given a single subcutaneous dose of compound 4 at 25 mg·kg^−1 (100 μL of 7.5 mg-mL-1 solution in 20% DMSO/20% Tween-80/60% sterilized water). At 0.5, 1, 2, 4, and 8 h, mice were euthanized. Terminal blood was collected by cardiac puncture into heparinized (sodium heparin, Sigma-Aldrich, St. Louis, MO) syringes, and centrifuged (20,000×g at 4° C. for 15 min) to obtain plasma. A 60-μL aliquot of plasma was mixed with 60 μL of a 10 μg·mL^−1 solution of internal standard in acetonitrile. After centrifugation (17,000×g for 10 min), a 60-μL of the supernatant was taken for ultraperformance liquid chromatography (UPLC) analysis with UV detection.
Thighs were excised, weighed, and mixed with 100 μL of 10 μg·mL^−1 of internal standard in acetonitrile. Acetonitrile (900 μL) was added, and the mixture was homogenized on a Bullet blender (Next Advance, Inc., Averill Park, NY). After centrifugation at 17,000×g for 10 min, the supernatant was collected. The extraction was repeated two additional times. The combined supernatants were concentrated on a speed vac. The residue was dissolved in 100 μL of acetonitrile, and the mixture was centrifuged. A 60-μL aliquot of the supernatant was placed in an autosampler vial.
Plasma and thigh samples were analyzed on a Waters Acquity UPLC (Waters Corp., Milford, MA) coupled with a diode array detector with UV detection at 320-330 nm. A C18 Atlantis™ T3 column 2.1 i.d.×100 mm length 3 μm-particle size column was used at a flow rate of 0.5 mL/min. The gradient consisted of 0.5-min from 80% A/20% B to 65% A/35% B, 4.5-min to 25% A/75% B, 0.5-min to 65% A/35% B, 2-min to 80% A/20% B, where A=0.1% formic acid in water and B=0.1% formic acid in acetonitrile. Internal standard and compound 4 eluted at 4.2 and 4.6 min, respectively.
Calibration curves containing known concentrations of compound 4 (ranging from 0 to 200 μg·g^−1 tissue for thighs or 0 to 40 μg·mL^−1 for plasma) and internal standard in blank control thigh tissue or control plasma were prepared. Concentrations in the thighs and plasma were determined from the calibration curve regression parameters relative to internal standard.

[5] = test system: HepG2 (liver) cells; assay: XTT cytotoxicity assay; assay type: cell-based; conditions: HepG2 cells
Experimental: (§3) We evaluated additionally the in vitro cytotoxicity of compound 4 using the XTT assay with HepG2 (liver) cells. Cell viability was 100% at 64 mg·L^−1.
(§4) XTT assay. Compound 4 was evaluated in triplicate in the XTT assay (XTT cell proliferation assay, Canvax, Spain) with HepG2 cells, as described previously (Eur. J. Med. Chem. 253, 115329 (2023)). GraphPad Prism 5 (San Diego, CA) was used to calculate IC50 values.

[6] = XTT cytotoxicity assay; assay type: cell-based; conditions: human, hepg2 cells; HepG2; at 64 mg·L^−1; read-out: Cell viability
Experimental: as §3, §4

[7] = test system: HI049; assay: Checkerboard assay; assay type: cell-based, Staphylococcus aureus
Experimental: as §1, §2

[8] = test system: HFH29568; assay: Checkerboard assay; assay type: cell-based, Staphylococcus aureus
Experimental: as §1, §2

[9] = test system: HFH29568; assay: Time-kill assay; assay type: cell-based, Staphylococcus aureus
Experimental: Time-kill assay. MRSA strains (NRS21, NRS70, NRS382, NRS404, HFH 29568, and HFH 30495) were grown overnight on tryptic soy agar plate. Bacteria were diluted in Muller-Hinton broth containing 2% NaCl to […] CFU·mL^−1. […] For MEM and CPT, cation-adjusted Muller-Hinton broth without 2% NaCl was used. Aliquots were taken at 0, 3, 6, 9, 12, and 24 h and were diluted serially for bacterial counts. The assay was done in triplicate.

| Compound | inhibitory properties against penicillin-binding proteins [1] | FIC, 4 with OXA, MEM, FOX, or CPT [2] | FIC index, 4 with FOX [3] | FIC index, 4 with OXA [3] | Tmax ([4]; plasma and thigh, plasma and thighs, 25 mg·kg^−1 sc, read-out: time at which maximum concentrations were achieved) | Cmax at 4 h ([4]; plasma, read-out: Maximum concentration in plasma) | concentration at 8 h ([4]; plasma, 25 mg·kg^−1 sc, read-out: concentration at 8 h in plasma) | Cmax at 4 h ([4]; thigh, read-out: Maximum concentration in thighs) | concentration at 8 h ([4]; thigh, 25 mg·kg^−1 sc, read-out: concentration at 8 h in thighs) | in vitro cytotoxicity [5] | viability [6] | FIC index, 4 with MEM [7] | FIC index, 4 with MEM [8] | log10 decrease in bacterial growth ([9]; MEM by itself, at 6 h) | activity of MEM by itself ([9]; by 24 h) |
| --- | --- | --- | --- | --- | --- | --- | --- | --- | --- | --- | --- | --- | --- | --- | --- |
| N#Cc1ccc2nc(SCB(O)O)n(Cc3ccc(C(F)(F)F)cc3C(F)(F)F)c2c1 [Compound 4, (((1-(2,4-bis(trifluoro-methyl)benzyl)-6-cyano-1H-benzo[d]imidazol-2-yl)thio)methyl)boronic acid] | modest inhibitory properties | < 0.25 | 0.25 | 0.19 | 4 h | 8500 ng/mL | 3900 ng/mL | 28000 ng/mL | 20000 ng/mL | not toxic to HepG2 cells | 100% | – | – | – | – |
| C[C@@H](O)[C@H]1C(=O)N2C(C(=O)O)=C(S[C@@H]3CN[C@H](C(=O)N(C)C)C3)[C@H](C)[C@H]12 [MEM, meropenem] | – | – | – | – | – | – | – | – | – | – | – | 0.19 | 0.09 | 2 log10 | no activity |
